Laboratory results: US9127003B2, “2-(azaindol-2-yl)benzimidazoles as PAD4 inhibitors” (Glaxo Group Limited, priority 2012, dated 2015)
Values joined by “and” are separate entries in the source; they are usually repeats but may differ in a detail not shown here. Equal entries are not always repeated. Structures can show the parent of a compound that is named as a salt.

Experiments:
[1] = biological target: T1, Recombinant human PAD2 (residues 1-665) (Homo sapiens, UniProt Q9Y2J8); assay: PAD2 enzyme assay (NH3 release, BAEE substrate, fluorescence); type: biochemical; details: PAD2 enzyme assay above or similar assays; read-out: mean pIC50 (converted)
T1 construct: Recombinant human PAD2 (residues 1-665); 6His-FLAG (N); made in house; host or cells: baculovirus-infected Sf9 insect cells
Protocol: Recombinant human PAD2 (residues 1-665) was expressed in baculovirus-infected Sf9 insect cells as an N-terminal 6His-FLAG-tagged fusion protein. Activity of the final product was determined using a FLINT NH3 release assay.
8 μl of PAD2 enzyme diluted to an assay concentration of 30 nM in assay buffer (100 mM HEPES, 50 mM NaCl, 2 mM DTT, 7.5% glycerol and 1.5 mM CHAPS pH 8), and added to wells containing 0.1 μl of various concentrations of compound or DMSO vehicle (0.8% final) in a Greiner high volume 384 well black plate. Following 30 mins pre-incubation at room temperature, the reaction was initiated by the addition of 4 μl of substrate buffer containing 180 uM N-a-benzoyl-L-arginine ethyl ester (BAEE), 100 mM HEPES, 50 mM NaCl, 240 uM CaCl2 (2H2O) and 2 mM DTT, pH 8.0. The reaction was stopped after 90 mins with the addition of 38 μl stop/detection buffer containing 50 mM EDTA, 2.6 mM phthalaldehyde and 2.6 mM DTT. Assay incubated at room temperature for 90 mins before measuring fluorescent signal (λex 405/λem 460) on an Envision plate reader (Perkin Elmer Life Sciences, Waltham, Mass., USA)

[2] = biological target: T2, Recombinant human PAD4 (residues 1-663) (Homo sapiens, UniProt Q9UM07); assay: PAD4 enzyme assay (NH3 release, BAEE substrate, fluorescence); type: biochemical; details: PAD4 enzyme assay above (Conditions A or B) or similar assays; read-out: mean pIC50 (converted)
T2 construct: Recombinant human PAD4 (residues 1-663); GST (N, cleaved yes); made in house; host or cells: E. coli
Protocol: Recombinant human PAD4 (residues 1-663) was expressed in E. coli as an N-terminal GST-tagged fusion protein. During purification of the protein, the GST tag was removed by cleavage with PreScission Protease (GE Healthcare). Activity of the final product was determined using a FLINT NH3 release assay.
(§1) 8 μl of PAD4 enzyme diluted to an assay concentration of 75 nm in assay buffer (a).: (100 mM HEPES, 50 mM NaCl, 2 mM DTT and 0.6 mg/mIBSA pH 8), or in assay buffer (b).: (100 mM HEPES, 50 mM NaCl, 2 mM DTT, 7.5% glycerol and 1.5 mM CHAPS pH 8), and added to wells containing 0.1 μl of various concentrations of compound or DMSO vehicle (0.8% final) in a Greiner high volume 384 well black plate. Following 30 mins pre-incubation at room temperature, the reaction was initiated by the addition of 4 μl of substrate buffer containing 3 mM N-a-benzoyl-L-arginine ethyl ester (BAEE), 100 mM HEPES, 50 mM NaCl, 600 uM CaCl2 (2H2O) and 2 mM DTT, pH 8.0. The reaction was stopped after 100 mins with the addition of 38 μl stop/detection buffer containing 50 mM EDTA, 2.6 mM phthalaldehyde and 2.6 mM DTT. Assay incubated at room temperature for 90 mins before measuring fluorescent signal (λex 413/λem 476) on an Envision plate reader (Perkin Elmer Life Sciences, Waltham, Mass., USA)
as §1, with “of 30 nM” for “of 75 nm”, “buffer” for “buffer (a).:”, “mg/mIBSA” for “mg/mIBSA pH 8), or in assay buffer (b).: (100 mM HEPES, 50 mM NaCl, 2 mM DTT, 7.5% glycerol and 1.5 mM CHAPS”, “after 60” for “after 100”, “(λex 405/λem 460)” for “(λex 413/λem 476)”

T1 sequence (Q9Y2J8 whole entry, the tested form may be a part): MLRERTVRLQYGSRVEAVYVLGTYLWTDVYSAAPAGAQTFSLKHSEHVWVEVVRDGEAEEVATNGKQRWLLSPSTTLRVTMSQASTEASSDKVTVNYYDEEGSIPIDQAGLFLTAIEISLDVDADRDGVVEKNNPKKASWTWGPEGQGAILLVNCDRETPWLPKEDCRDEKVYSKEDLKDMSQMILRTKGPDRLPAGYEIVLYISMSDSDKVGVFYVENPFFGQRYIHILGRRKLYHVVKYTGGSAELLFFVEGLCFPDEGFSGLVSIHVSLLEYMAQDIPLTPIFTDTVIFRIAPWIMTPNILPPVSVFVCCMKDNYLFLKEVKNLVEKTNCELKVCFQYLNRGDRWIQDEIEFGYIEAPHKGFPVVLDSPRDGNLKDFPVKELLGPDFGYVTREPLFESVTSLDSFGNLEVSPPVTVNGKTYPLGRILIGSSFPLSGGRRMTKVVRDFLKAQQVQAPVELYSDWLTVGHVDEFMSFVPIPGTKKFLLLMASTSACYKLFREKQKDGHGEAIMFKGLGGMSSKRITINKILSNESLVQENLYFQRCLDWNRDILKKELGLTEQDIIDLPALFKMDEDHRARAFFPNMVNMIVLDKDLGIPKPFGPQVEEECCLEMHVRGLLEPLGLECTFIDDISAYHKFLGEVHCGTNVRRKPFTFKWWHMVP
T2 sequence (Q9UM07 whole entry, the tested form may be a part): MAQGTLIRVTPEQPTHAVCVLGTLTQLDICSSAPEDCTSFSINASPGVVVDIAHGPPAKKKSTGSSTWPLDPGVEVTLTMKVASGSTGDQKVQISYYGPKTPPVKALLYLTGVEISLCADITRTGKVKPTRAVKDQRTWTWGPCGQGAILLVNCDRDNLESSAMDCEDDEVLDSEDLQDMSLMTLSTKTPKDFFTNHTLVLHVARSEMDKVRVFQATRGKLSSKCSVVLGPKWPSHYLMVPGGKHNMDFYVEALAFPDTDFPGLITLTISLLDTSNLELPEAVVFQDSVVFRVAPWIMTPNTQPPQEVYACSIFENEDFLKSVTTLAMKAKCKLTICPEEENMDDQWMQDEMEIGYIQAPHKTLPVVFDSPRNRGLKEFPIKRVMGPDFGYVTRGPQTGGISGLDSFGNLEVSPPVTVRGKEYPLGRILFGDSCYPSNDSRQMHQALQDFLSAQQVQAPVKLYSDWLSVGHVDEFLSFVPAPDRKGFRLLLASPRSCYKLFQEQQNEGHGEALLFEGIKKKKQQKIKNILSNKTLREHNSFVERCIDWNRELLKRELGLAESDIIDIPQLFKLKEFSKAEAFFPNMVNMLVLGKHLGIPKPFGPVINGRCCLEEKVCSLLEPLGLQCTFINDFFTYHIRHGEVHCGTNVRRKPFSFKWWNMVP

Row | SMILES | IC50 [1] | IC50 [2]
1 | Cn1c(-c2cc3cccnc3n2CC2CC2)nc2cc(C(=O)N3CC[C@@H](O)[C@@H](N)C3)ccc21 [Example 13, ((3S,4R)-3-Amino-4-hydroxypiperidin-1-yl)(2-(1-(cyclopropylmethyl)-1H-pyrrolo[2,3-b]pyridin-2-yl)-1-methyl-1H-benzo[d]imidazol-5-yl)methanone, hydrochloride] | 63.1 to 79.4 µM | 0.0316 to 10 µM
2 | COc1cc(C(=O)N2CC[C@@H](O)[C@@H](N)C2)cc2nc(-c3cc4cccnc4n3CC3CC3)n(C)c12 [Example 14, ((3S,4R)-3-Amino-4-hydroxypiperidin-1-yl)(2-(1-(cyclopropylmethyl)-1H-pyrrolo[2,3-b]pyridin-2-yl)-7-methoxy-1-methyl-1H-benzo[d]imidazol-5-yl)methanone, hydrochloride] | > 79.4 µM | 0.0316 to 10 µM and 0.0794 µM
3 | CCn1c(-c2nc3cc(C(=O)N4CCC[C@H](N)C4)cc(OC)c3n2C)cc2cccnc21 [Example 19, (S)-(3-Aminopiperidin-1-yl)(2-(1-ethyl-1H-pyrrolo[2,3-b]pyridin-2-yl)-7-methoxy-1-methyl-1H-benzo[d]imidazol-5-yl)methanone, hydrochloride] | 63.1 to 79.4 µM | 0.0316 to 10 µM
4 | COc1cc(C(=O)N2CCC[C@@H](N)C2)cc2nc(-c3cc4cccnc4n3CC(C)(C)C)n(C)c12 [Example 16, (R)-(3-Aminopiperidin-1-yl)(7-methoxy-1-methyl-2-(1-neopentyl-1H-pyrrolo[2,3-b]pyridin-2-yl)-1H-benzo[d]imidazol-5-yl)methanone] | 63.1 to 79.4 µM | 0.0316 to 10 µM

The remaining lines, values ahead:

Row | IC50 [1] | IC50 [2] | SMILES
5 | 63.1 to 79.4 µM and > 79.4 µM | 0.0316 to 10 µM and 0.2 µM | Cn1c(-c2cc3cccnc3n2CC2CC2)nc2cc(C(=O)N3CCC[C@@H](N)C3)ccc21 [Example 5B, (R)-(3-Aminopiperidin-1-yl)(2-(1-(cyclopropylmethyl)-1H-pyrrolo[2,3-b]pyridin-2-yl)-1-methyl-1H-benzo[d]imidazol-5-yl)methanone, hydrochloride]
6 | 63.1 to 79.4 µM and > 79.4 µM | 0.0316 to 10 µM and 0.0501 µM | COc1cc(C(=O)N2CCC[C@@H](N)C2)cc2nc(-c3cc4cccnc4n3CC3CC3)n(C)c12 [Example 10B, (R)-(3-Aminopiperidin-1-yl)(2-(1-(cyclopropylmethyl)-1H-pyrrolo[2,3-b]pyridin-2-yl)-7-methoxy-1-methyl-1H-benzo[d]imidazol-5-yl)methanone, hydrochloride]
